From patent publication US20250134855A1, “CO[…] AND METHODS OF USING SAME” (LYKOS THERAPEUTICS, INC., priority 2022, published 2025)

Legend:
[1] = target: human ether-à-go-go-related gene (hERG) potassium current (Homo sapiens, UniProt Q12809); assay: hERG potassium current inhibition
MDR1 [2] = target: T1, MDR1 (Homo sapiens, UniProt P08183); assay: Transporter inhibition, MDR1
[3] = system: participants with PTSD of moderate or greater severity; assay: MAPP2 Phase 3: Sheehan Disability Scale (SDS); assay type: in vivo, human
Source text: (§1) FIG. 36 and FIG. 37 show the time course of improvement in Clinician Administered PTSD Scale for DSM-5 (CAPS-5) total severity score versus placebo. Each show a treatment difference between MDMA and placebo after 3 medication sessions with psychological intervention. […] Between the second and third treatment sessions, the difference between the groups appeared to continue to increase in both studies. The primary efficacy measure was change from baseline in the CAPS-5 total severity score at 18 weeks, which was evaluated 2 months after the final dosing session. The CAPS-5 is a 30-item, clinician-rated scale used to assess severity of PTSD symptoms and diagnostic status according to DSM-5 criteria, as described herein. Scores on the CAPS 5 range from 0 to 80, with higher scores indicating more severe PTSD symptoms. In both studies, a secondary efficacy measure was change from baseline in Sheehan Disability Scale (SDS) mean item scores at 18 weeks. The modified SDS is a 3-item, clinician-rated scale measuring the degree of functional impairment in work, family, and social life. Scores on the SDS mean items range from 0 to 10, with higher scores indicating more functional impairment. In these studies, the efficacy assessments were administered by blinded independent raters 18 to 30 days after medication sessions 1 and 2.
MAPP2 was a Phase 3 randomized, placebo-controlled, 2-arm, double-blind, multi-site study conducted to investigate the efficacy and safety of MDMA-AT in participants with PTSD of moderate or greater severity. This study included 3 experimental sessions of therapy combined with either MDMA or placebo. During Experimental Session 1, participants received a split dose of 120 mg (80 mg+40 mg). Participants received an escalated split dose of 180 mg during Experimental Sessions 2 and 3 unless there were tolerability issues or the participant declined.
The primary outcome measure, the CAPS-5, evaluated changes in PTSD symptom severity and the secondary outcome measure, the SDS, evaluated changes in functional impairment. Both measures were assessed by a blinded centralized language-specific IR pool.
The de jure estimand of treatment efficacy was used to determine the effect of MDMA-AT on SDS total score in the mITT analysis set.

male rats = assay: In vivo genotoxicity (micronucleated polychromatic erythrocytes), male rats; design: species or system rat; conditions: oral, doses up to 100 mg/kg day over two days
Source text: No statistically significant differences in micronucleated polychromatic erythrocytes or bone marrow cytotoxicity were observed across all dose levels.

rats = assay: 28-day repeat-dose toxicity, weekly oral, rats; conditions: any dose
BCRP = BCRP (Homo sapiens, UniProt Q9UNQ0); assay: Transporter inhibition, BCRP; conditions: not told
MDR1 [4] = target: T1, MDR1; assay: Transporter substrate assessment, MDR1
[5] = system: participants with severe PTSD; assay: MAPP1 Phase 3: Sheehan Disability Scale (SDS); assay type: in vivo, human
Source text: as §1
MAPP1 was a Phase 3 randomized, placebo-controlled, 2-arm, double-blind, multi-site study conducted to investigate the efficacy and safety of MDMA-AT in participants with severe PTSD. This study is also discussed in Mitchell et. al., Nature Medicine 2021, 27, 1025-1033. This study included 3 experimental sessions of therapy combined with either MDMA·HCl or placebo. During Experimental Session 1, participants received a split dose of 120 mg (80 mg+40 mg).
Participants received an escalated split dose of 180 mg during Experimental Sessions 2 and 3 unless there were tolerability issues or the participant declined. The primary outcome measure, the CAPS-5, evaluated changes in PTSD symptom severity and the secondary outcome measure, the SDS, evaluated changes in functional impairment. Both measures were assessed by a blinded centralized language-specific IR pool.
The de jure estimand of treatment efficacy was used to determine the effect of MDMA-AT on SDS total score.

MATE1 = MATE1 (Homo sapiens, UniProt Q96FL8); assay: Transporter inhibition, MATE1; conditions: at supratherapeutic concentrations
[6] = target: organic cation transporter (OCT1) (Homo sapiens, UniProt O15245); assay: Transporter inhibition, OCT1; conditions: at supratherapeutic concentrations
[7] = MAPP2, mITT, Baseline (Visit 3)
[8] = MAPP2, mITT, Baseline to Visit 19
[9] = MAPP2, mITT, Visit 19 (Primary Endpoint)
[10] = end of treatment, 52 patients (study not given)
[11] = MAPP1, mITT, Baseline (Visit 3)
[12] = MAPP1, mITT, Baseline to Visit 19
[13] = MAPP1, mITT, Visit 19 (Primary Endpoint)
[14] = end of treatment, 42 patients (study not given)

human ether-à-go-go-related gene (hERG) potassium current, sequence (Q12809 whole entry): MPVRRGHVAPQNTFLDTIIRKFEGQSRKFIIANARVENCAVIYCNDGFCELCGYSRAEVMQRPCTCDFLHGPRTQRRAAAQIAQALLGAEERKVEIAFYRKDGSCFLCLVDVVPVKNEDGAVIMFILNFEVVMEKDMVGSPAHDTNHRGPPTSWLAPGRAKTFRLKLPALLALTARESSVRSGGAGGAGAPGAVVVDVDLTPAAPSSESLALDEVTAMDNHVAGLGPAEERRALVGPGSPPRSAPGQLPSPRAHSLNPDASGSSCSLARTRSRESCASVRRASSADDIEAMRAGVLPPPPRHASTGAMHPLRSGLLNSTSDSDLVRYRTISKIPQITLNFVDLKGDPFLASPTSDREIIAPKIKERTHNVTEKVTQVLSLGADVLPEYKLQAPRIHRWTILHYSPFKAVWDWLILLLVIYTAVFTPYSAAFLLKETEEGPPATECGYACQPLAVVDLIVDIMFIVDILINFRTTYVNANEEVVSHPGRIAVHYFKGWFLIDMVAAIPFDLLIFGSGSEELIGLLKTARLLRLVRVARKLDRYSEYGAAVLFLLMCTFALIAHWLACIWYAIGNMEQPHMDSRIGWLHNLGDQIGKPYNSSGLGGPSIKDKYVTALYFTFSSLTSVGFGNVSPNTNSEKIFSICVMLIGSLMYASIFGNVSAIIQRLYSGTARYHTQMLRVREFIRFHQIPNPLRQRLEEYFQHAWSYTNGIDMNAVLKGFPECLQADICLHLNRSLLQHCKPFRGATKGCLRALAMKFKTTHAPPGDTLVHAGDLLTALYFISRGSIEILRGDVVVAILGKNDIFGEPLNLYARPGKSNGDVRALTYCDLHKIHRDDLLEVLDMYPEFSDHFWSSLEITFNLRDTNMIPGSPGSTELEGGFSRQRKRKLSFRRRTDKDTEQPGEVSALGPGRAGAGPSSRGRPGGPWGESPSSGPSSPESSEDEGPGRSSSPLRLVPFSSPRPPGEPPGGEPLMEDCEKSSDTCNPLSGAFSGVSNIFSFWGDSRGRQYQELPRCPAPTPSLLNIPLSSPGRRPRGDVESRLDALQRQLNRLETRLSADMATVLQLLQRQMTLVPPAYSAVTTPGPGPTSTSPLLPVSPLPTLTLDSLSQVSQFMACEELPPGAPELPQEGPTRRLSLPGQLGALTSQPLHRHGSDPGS
T1 sequence (P08183 whole entry): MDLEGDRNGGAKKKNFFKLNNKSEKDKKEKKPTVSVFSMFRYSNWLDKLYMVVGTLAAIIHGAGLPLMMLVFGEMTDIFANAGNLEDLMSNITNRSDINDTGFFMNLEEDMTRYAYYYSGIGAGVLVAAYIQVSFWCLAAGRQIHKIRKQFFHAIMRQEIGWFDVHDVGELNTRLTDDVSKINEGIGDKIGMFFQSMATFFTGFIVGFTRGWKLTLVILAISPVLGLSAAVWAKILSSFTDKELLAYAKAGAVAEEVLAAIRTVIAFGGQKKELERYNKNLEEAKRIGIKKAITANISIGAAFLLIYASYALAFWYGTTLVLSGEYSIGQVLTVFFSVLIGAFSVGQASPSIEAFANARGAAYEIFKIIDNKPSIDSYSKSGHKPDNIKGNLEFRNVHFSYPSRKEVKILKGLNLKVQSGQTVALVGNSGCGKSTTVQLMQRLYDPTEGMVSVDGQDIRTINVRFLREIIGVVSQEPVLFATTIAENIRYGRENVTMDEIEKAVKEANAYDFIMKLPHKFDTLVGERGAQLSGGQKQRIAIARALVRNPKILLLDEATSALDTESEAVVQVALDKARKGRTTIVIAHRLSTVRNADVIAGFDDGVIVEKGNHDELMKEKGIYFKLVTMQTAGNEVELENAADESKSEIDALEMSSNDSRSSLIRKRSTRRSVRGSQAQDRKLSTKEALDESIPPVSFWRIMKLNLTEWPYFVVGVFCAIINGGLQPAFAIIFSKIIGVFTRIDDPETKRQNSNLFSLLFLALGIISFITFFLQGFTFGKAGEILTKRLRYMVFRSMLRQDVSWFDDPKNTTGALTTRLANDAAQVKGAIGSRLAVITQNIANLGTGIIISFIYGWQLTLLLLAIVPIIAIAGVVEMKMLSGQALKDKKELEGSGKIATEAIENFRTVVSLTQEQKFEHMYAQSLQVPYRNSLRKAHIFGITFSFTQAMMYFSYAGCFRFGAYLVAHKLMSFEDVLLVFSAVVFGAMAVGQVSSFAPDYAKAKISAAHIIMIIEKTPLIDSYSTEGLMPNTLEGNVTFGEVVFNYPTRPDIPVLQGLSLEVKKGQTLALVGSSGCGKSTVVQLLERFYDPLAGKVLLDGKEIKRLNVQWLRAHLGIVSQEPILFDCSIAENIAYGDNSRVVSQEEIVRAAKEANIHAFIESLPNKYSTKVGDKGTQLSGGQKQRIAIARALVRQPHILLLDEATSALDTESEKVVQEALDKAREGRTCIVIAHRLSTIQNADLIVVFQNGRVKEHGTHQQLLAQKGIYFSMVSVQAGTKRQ
organic cation transporter (OCT1), sequence (O15245 whole entry): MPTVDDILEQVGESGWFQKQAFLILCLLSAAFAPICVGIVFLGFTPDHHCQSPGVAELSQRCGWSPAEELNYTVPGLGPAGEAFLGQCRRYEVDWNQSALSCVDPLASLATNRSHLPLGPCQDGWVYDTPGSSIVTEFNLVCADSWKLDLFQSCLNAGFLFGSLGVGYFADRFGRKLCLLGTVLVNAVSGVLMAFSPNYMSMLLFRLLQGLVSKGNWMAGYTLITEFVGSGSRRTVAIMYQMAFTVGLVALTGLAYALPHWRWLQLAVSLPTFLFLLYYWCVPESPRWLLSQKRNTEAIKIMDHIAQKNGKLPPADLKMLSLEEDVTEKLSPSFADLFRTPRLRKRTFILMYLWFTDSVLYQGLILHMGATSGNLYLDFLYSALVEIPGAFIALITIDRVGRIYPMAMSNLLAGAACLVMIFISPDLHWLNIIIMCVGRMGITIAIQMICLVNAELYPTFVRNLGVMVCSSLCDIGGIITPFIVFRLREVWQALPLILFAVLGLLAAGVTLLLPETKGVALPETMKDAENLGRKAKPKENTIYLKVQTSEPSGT
BCRP, sequence (Q9UNQ0 whole entry): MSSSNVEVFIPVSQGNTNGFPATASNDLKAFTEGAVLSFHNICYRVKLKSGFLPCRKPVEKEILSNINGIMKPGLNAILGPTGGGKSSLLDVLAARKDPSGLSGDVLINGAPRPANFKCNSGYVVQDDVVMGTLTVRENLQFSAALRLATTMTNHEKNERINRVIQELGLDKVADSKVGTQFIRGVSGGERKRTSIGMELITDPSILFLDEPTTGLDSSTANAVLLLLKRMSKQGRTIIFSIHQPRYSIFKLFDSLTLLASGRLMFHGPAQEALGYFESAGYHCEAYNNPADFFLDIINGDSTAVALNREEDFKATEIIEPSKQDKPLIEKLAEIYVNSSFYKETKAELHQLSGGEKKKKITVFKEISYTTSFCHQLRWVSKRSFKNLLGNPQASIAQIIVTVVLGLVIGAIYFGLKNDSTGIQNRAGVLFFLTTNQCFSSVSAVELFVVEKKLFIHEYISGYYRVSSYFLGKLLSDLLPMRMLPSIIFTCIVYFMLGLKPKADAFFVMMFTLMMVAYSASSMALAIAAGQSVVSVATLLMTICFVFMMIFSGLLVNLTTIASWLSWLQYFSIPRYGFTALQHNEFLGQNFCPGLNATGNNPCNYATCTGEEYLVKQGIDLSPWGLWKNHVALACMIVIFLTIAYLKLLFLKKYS
MATE1, sequence (Q96FL8 whole entry): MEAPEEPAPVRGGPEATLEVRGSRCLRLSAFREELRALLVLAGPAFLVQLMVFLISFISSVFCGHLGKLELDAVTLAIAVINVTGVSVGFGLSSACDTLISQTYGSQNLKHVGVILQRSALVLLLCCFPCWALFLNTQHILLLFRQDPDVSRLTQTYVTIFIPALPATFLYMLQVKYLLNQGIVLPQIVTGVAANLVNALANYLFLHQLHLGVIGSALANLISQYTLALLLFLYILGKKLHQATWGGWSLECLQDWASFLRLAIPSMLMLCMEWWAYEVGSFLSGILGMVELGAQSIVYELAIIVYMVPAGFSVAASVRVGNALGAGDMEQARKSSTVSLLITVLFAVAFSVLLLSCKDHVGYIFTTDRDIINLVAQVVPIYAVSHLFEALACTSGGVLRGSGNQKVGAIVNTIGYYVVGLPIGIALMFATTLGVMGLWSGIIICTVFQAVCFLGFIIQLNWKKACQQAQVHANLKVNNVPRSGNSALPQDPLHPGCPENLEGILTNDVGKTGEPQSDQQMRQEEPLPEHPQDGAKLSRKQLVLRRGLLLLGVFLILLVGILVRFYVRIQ

## CNC(C)Cc1ccc2c(c1)OCO2 (centres unmarked) [MDMA, 3,4-methylenedioxymethamphetamine]
[1]
  IC50: 206 µM
[1]; human
  Hill coefficient, hERG: 1.1
[1]; supratherapeutic single dose of 180 mg MDMA HCl
  margin of hERG IC50 over clinical plasma concentration: 111 x
MDR1 [2]
  inhibition of MDR1: not an inhibitor
[3]; MAPP2, mITT, MMRM, Visit 19
  SDS Total Score CFB, LSMean: −3.31
[3]; MAPP2, mITT, MMRM, vs placebo with therapy, Visit 19
  SDS Total Score CFB, LSMean for Treatment Difference: −1.20
[3]; [7]
  SDS Total Score, Mean: 6.0
  SDS Total Score, Median: 6.3
[3]; [8]
  SDS Total Score CFB, Mean: −3.3
  SDS Total Score CFB, Median: −4.0
[3]; MAPP2, mITT, Visit 8
  SDS Total Score, Mean: 4.1
  SDS Total Score, Median: 4.3
[3]; MAPP2, mITT, Visit 13
  SDS Total Score, Mean: 2.9
  SDS Total Score, Median: 2.7
[3]; [9]
  SDS Total Score, Mean: 2.7
  SDS Total Score, Median: 2.3
[3]; MAPP2, MMRM, de jure estimand, mITT
  reduction in SDS total scores: −3.31
[3]; [10]
  SDS Remission (SDS mean item score < 3): (55.8) %
  SDS Remission (SDS mean item score < 3), n: 29
  SDS Responder (4 point or greater reduction from baseline SDS mean item score): (53.8) %
  SDS Responder (4 point or greater reduction from baseline SDS mean item score), n: 28
Male rats
  genotoxicity in vivo: no signs of genotoxicity
rats
  neurohistopathology of the brain: No morphologic changes
BCRP
  inhibition of BCRP: not an inhibitor
MDR1 [4]
  substrate of MDR1: not a substrate
[5]; MAPP1, mITT, MMRM, Visit 19
  SDS Total Score CFB, LSMean: −3.15
[5]; MAPP1, mITT, MMRM, vs placebo with therapy, Visit 19
  SDS Total Score CFB, LSMean for Treatment Difference: −1.36
[5]; [11]
  SDS Total Score, Mean: 6.8
  SDS Total Score, Median: 6.8
[5]; [12]
  SDS Total Score CFB, Mean: −3.1
  SDS Total Score CFB, Median: −2.5
[5]; MAPP1, mITT, Visit 8
  SDS Total Score, Mean: 5.0
  SDS Total Score, Median: 5.0
[5]; MAPP1, mITT, Visit 13
  SDS Total Score, Mean: 4.1
  SDS Total Score, Median: 4.7
[5]; [13]
  SDS Total Score, Mean: 3.8
  SDS Total Score, Median: 3.4
[5]; MAPP1, MMRM, de jure estimand
  reduction in SDS total scores: −3.15
[5]; [14]
  SDS Remission (SDS mean item score < 3): (42.9) %
  SDS Remission (SDS mean item score < 3), n: 18
  SDS Responder (4 point or greater reduction from baseline SDS mean item score): (38.1) %
  SDS Responder (4 point or greater reduction from baseline SDS mean item score), n: 16
MATE1
  inhibition of MATE1: inhibits
[6]
  inhibition of OCT1: inhibits
